Source: patent US20190275010A1, “COMBINATION THERAPY COMPRISING A THIAZOLE AND A SECOSTEROID TO TREAT SKIN CONDITIONS” (Avexxin AS, priority 2016, published 2019)
“Also recorded” adds a separate entry of the source.

Test system: HaCaT cells
Test: Resazurin assay, HaCaT keratinocyte cell viability
Type: cell-based, human
Details: for effect on cell viability at 10 μM: single agent 10 μM, 24 hours (FIG. 1); for concentration at which the compound was found to reduce cell viability: single agent dose response, 24 hours treatment, resazurin (FIG. 1)
Procedure: The spontaneously immortalized, nontumorigenic skin keratinocyte cell line HaCaT was maintained in DMEM supplemented with 5% (v/v) FBS, 0.3 mg/ml glutamine and 0.1 mg/ml gentamicin at 37° C. with 5% CO2 in a humidified atmosphere. Subculture using trypsin-EDTA was performed every 3-4 days with split ratio of 1:3-1:4 to ensure actively proliferating cells.
Cells were seeded in 96 well plates in fully supplemented medium at a density of 3000 cells per well. Following 72 hour of cultivation, the cells were starved of serum in 0.25% FBS/DMEM overnight to halt proliferation, synchronize the cells and to increase cell sensitivity to treatment. Next day, the cells were treated with cPLA2α inhibitor Compound B, Compound A, vitamin D analogue Calcipotriol and corticosteroid hormone receptor agonist Betamethasone dipropionate for 24 hours. Resazurin was added next day according to the manufacturer's instruction (RnD Systems, UK) and left to incubate for […] in incubator at 37° C. with 5% CO2 in a humidified atmosphere before fluorescence was read at 544 nm excitation and 590 nm emission wavelength. The cells were observed under the microscope to evaluate possible morphology changes and signs of stress before addition of resazurin. The experiments were performed in series of 8 wells per treatment and repeated 3 times.

Compound	effect on cell viability at 10 μM	concentration at which the compound was found to reduce cell viability [µM]
C=C1/C(=C\C=C2/CCC[C@]3(C)[C@@H]([C@H](C)/C=C/[C@@H](O)C4CC4)CC[C@@H]23)C[C@@H](O)C[C@@H]1O [Calcipotriol]	no signs of impairment in cell viability; also recorded: no toxicity	15
CCCCCCCOc1ccc(OCC(=O)c2nc(C(=O)OC)cs2)cc1 [Compound A1]	no toxicity	20
